The target of this test is Aldo-keto reductase family 1 member B1 (Homo sapiens, UniProt P15121). As to the kind of experiment: IC50 Activity Assays. As to conditions: pH 7; 25 °C. The procedure: The final reaction volume was 500uL per reaction. All compounds were dissolved in dimethyl sulphoxide, and the corresponding solution was added to the cell and incubated for 5 min at 25 degrees Celsius prior to the addition of the substrate. The reaction was initiated by the addition of 1mM glyceraldehyde, and the decrease in optical density at 340nm was monitored for 3 min at 25 degrees Celsius in a UV-vis spectrophotometer.
In the case of `O=C(O)COc1cc(Cl)ccc1C(=O)NCc1ccc(Br)cc1` [MK181], inhibition was half-maximal at 710 nM (IC50).

In turn, `O=C(O)COc1cc(Cl)ccc1C(=O)NCc1ccc(I)cc1` [MK257] yielded an IC50 of 1900 nM.

Turning to `O=C(O)COc1cc(Cl)ccc1C(=O)NCc1ccc(I)cc1F` [MK315], the IC50 is 190 nM.

Turning to `O=C(O)COc1cc(Cl)ccc1C(=O)NCc1ccc(Br)cc1F` [IDD388], inhibition was half-maximal at 400 nM (IC50).

In turn, `O=C(O)COc1cc(Cl)ccc1C(=O)NCc1c(F)cc(Br)cc1F` [MK408] showed an IC50 of 1190 nM.

`O=C(O)COc1cc(Cl)ccc1C(=O)NCc1c(F)c(F)c(Br)c(F)c1F` [MK319] gave an IC50 of 300 nM.

`O=C(O)COc1cc(Cl)ccc1C(=O)NCc1c(F)cc(I)cc1F` [MK409] yielded an IC50 of 1360 nM.
